According to patent publication US11903387B2 (priority 2016, dated 2024):
Values joined by “and” are separate entries in the source; they are usually repeats but may differ in a detail not shown here. Equal entries are not always repeated. Where two headings read alike, the source gives them in different places.

Experiments:
[1] = system: Pseudoperonospora cubensis; assay: Test 2: control effect against cucumber downy mildew; type: in vivo
[2] = system: Phytophthora infestans; assay: whole plant or invertebrate; type: in vivo; details: for Test 1 preventive value, Measured: applied alone
[3] = Pseudoperonospora cubensis, component (b) alone, 2 ppm, read-out: Test 2 Measured
[4] = Pseudoperonospora cubensis, component (b) alone, 10 ppm, read-out: Test 2 Measured
[5] = Phytophthora infestans, in Solanum lycopersicum, read-out: Test 1 Measured, component (b) alone, 2 ppm
[6] = Phytophthora infestans, in Solanum lycopersicum, read-out: Test 1 Measured, component (b) alone, 10 ppm
[7] = component (b) alone 0.08 ppm, average of three repeats
[8] = component (b) alone 0.4 ppm, average of three repeats
[9] = component (b) alone 2 ppm, average of three repeats

`O=C1C2CC=CCC2C(=O)N1SC(Cl)(Cl)Cl` (stereo not drawn) [Captan] was tested, and the pest or weed control at 2 ppm [1, 3] was 90.1%, the pest or weed control at 10 ppm [1, 4] was 99% and the pest or weed control at 50 ppm ([1]; Pseudoperonospora cubensis, component (b) alone, 50 ppm, read-out: Test 2 Measured) was 99%. The “Test 2 Measured preventive value” ([1]; component (b) alone, 2 ppm) was 96 and 100, the “Test 2 Measured preventive value” ([1]; component (b) alone, 10 ppm) was 99.3 and the “Test 2 Measured preventive value” ([1]; component (b) alone, 50 ppm) was 100 and 96. For the same compound, the pest or weed control at 2 ppm ([2]; Phytophthora infestans, in Solanum lycopersicum, read-out: Test 1 Measured preventive value, component (b) alone, 2 ppm) was 5%, the pest or weed control at 10 ppm ([2]; Phytophthora infestans, in Solanum lycopersicum, read-out: Test 1 Measured preventive value, component (b) alone, 10 ppm) was 71.7% and the pest or weed control at 50 ppm ([2]; Phytophthora infestans, in Solanum lycopersicum, read-out: Test 1 Measured preventive value, component (b) alone, 50 ppm) was 93.8%. It also gave a pest or weed control at 2 ppm [2, 5] of 10%, a pest or weed control at 10 ppm [2, 6] of 64.5% and a pest or weed control at 50 ppm ([2]; Phytophthora infestans, in Solanum lycopersicum, read-out: Test 1 Measured, component (b) alone, 50 ppm) of 90%.

With `Cc1ccc(C(C)NC(=O)[C@@H](NC(=O)OC(C)C)C(C)C)cc1` (stereo partly drawn) [Iprovalicarb] the “Test 2 Measured” value ([1]; component (b) alone, 0.4 ppm) was 0, the “Test 2 Measured” value ([1]; component (b) alone, 2 ppm) was 0 and the “Test 2 Measured” value ([1]; component (b) alone, 10 ppm) was 93.8. For the same compound, the “Test 1 Measured” value ([2]; component (b) alone, 0.4 ppm) was 15, the “Test 1 Measured” value ([2]; component (b) alone, 2 ppm) was 93.3 and the “Test 1 Measured” value ([2]; component (b) alone, 10 ppm) was 100.

With `C#CCOc1ccc(CCNC(=O)C(OCC#C)c2ccc(Cl)cc2)cc1OC` (stereo not drawn) [Mandipropamid] the “Test 2 Measured preventive value” [1, 7] was 5, the “Test 2 Measured preventive value” [1, 8] was 89.5 and the “Test 2 Measured preventive value” [1, 9] was 95. The “Test 2 Measured” value ([1]; component (b) alone, 0.08 ppm) was 12, the “Test 2 Measured preventive value” ([1]; component (b) alone, 0.08 ppm) was 5 and the “Test 2 Measured” value ([1]; component (b) alone, 0.4 ppm) was 88.3. The “Test 2 Measured preventive value” ([1]; component (b) alone, 0.4 ppm) was 89.5, the “Test 2 Measured” value ([1]; component (b) alone, 2 ppm) was 95 and the “Test 2 Measured preventive value” ([1]; component (b) alone, 2 ppm) was 95. The “Test 1 Measured preventive value” [2, 7] was 36.7, the “Test 1 Measured preventive value” [2, 8] was 95.5 and the “Test 1 Measured preventive value” [2, 9] was 100.0. The “Test 1 Measured” value ([2]; component (b) alone, 0.08 ppm) was 40.0, the “Test 1 Measured preventive value” ([2]; component (b) alone, 0.08 ppm) was 36.7 and the “Test 1 Measured” value ([2]; component (b) alone, 0.4 ppm) was 94.0. The “Test 1 Measured preventive value” ([2]; component (b) alone, 0.4 ppm) was 95.5, the “Test 1 Measured” value ([2]; component (b) alone, 2 ppm) was 100.0 and the “Test 1 Measured preventive value” ([2]; component (b) alone, 2 ppm) was 100.0.

In the case of `CSC1=N[C@@](C)(c2ccccc2)C(=O)N1Nc1ccccc1` [Fenamidone], the pest or weed control at 0.4 ppm ([1]; Pseudoperonospora cubensis, component (b) alone, 0.4 ppm, read-out: Test 2 Measured) was 0%, the pest or weed control at 2 ppm [1, 3] was 0% and the pest or weed control at 10 ppm [1, 4] was 0%. For the same compound, the pest or weed control at 0.4 ppm ([2]; Phytophthora infestans, in Solanum lycopersicum, read-out: Test 1 Measured, component (b) alone, 0.4 ppm) was 16.7%, the pest or weed control at 2 ppm [2, 5] was 94.2% and the pest or weed control at 10 ppm [2, 6] was 98.5%.

With `CON=C(C(=O)OC)c1ccccc1CON=C(C)c1cccc(C(F)(F)F)c1` [Trifloxystrobin] the pest or weed control at 10 ppm ([1]; Pseudoperonospora cubensis, applied alone, 10 ppm, read-out: Test 2 preventive value, Measured) was 0%, the pest or weed control at 50 ppm ([1]; Pseudoperonospora cubensis, applied alone, 50 ppm, read-out: Test 2 preventive value, Measured) was 0% and the pest or weed control at 250 ppm ([1]; Pseudoperonospora cubensis, applied alone, 250 ppm, read-out: Test 2 preventive value, Measured) was 0%. It also gave a pest or weed control at 50 ppm ([2]; Phytophthora infestans, in Solanum lycopersicum, read-out: Test 1 preventive value, Measured, applied alone, 50 ppm) of 28.3%.

In the case of `Cc1cc(C2CC2)nc(Nc2ccccc2)n1` [Cyprodinil], the pest or weed control at 20 ppm ([1]; Pseudoperonospora cubensis, component (b) alone 20 ppm, read-out: Test 2 Measured) was 0%, the pest or weed control at 100 ppm ([1]; Pseudoperonospora cubensis, component (b) alone 100 ppm, read-out: Test 2 Measured) was 0% and the pest or weed control at 20 ppm ([2]; Phytophthora infestans, in Solanum lycopersicum, read-out: Test 1 Measured, component (b) alone 20 ppm) was 0%. The pest or weed control at 100 ppm ([2]; Phytophthora infestans, in Solanum lycopersicum, read-out: Test 1 Measured, component (b) alone 100 ppm) was 0% and the pest or weed control at 500 ppm ([2]; Phytophthora infestans, in Solanum lycopersicum, read-out: Test 1 Measured, component (b) alone 500 ppm) was 0%.

For `CO/C=C(/C(=O)OC)c1ccccc1Oc1cc(Oc2ccccc2C#N)ncn1` [Azoxystrobin], the “Test 2 preventive value, Measured” value ([1]; applied alone, 0.4 ppm) was 0, the “Test 2 preventive value, Measured” value ([1]; applied alone, 2 ppm) was 0 and the “Test 2 preventive value, Measured” value ([1]; applied alone, 10 ppm) was 0. For the same compound, the “Test 1 preventive value, Measured” value ([2]; 0.4 ppm) was 5.0, the “Test 1 preventive value, Measured” value ([2]; 2 ppm) was 66.7 and the “Test 1 preventive value, Measured” value ([2]; 10 ppm) was 96.2.

With `O=C(NCc1ncc(C(F)(F)F)cc1Cl)c1c(Cl)cccc1Cl` [Fluopicolide] the “Test 2 Measured” value ([1]; component (b) alone, 0.4 ppm) was 5, the “Test 2 Measured” value ([1]; component (b) alone, 2 ppm) was 98.3 and the “Test 2 Measured” value ([1]; component (b) alone, 10 ppm) was 100. For the same compound, the “Test 1 Measured” value ([2]; component (b) alone, 0.4 ppm) was 0.0, the “Test 1 Measured” value ([2]; component (b) alone, 2 ppm) was 30.0 and the “Test 1 Measured” value ([2]; component (b) alone, 10 ppm) was 90.8.

For `N=C(N)NCCCCCCCCNCCCCCCCCNC(=N)N` [Iminoctadine], the “Test 2 Measured” value ([1]; component (b) alone, 20 ppm) was 79.5, the “Test 2 Measured” value ([1]; component (b) alone, 100 ppm) was 97 and the “Test 2 Measured” value ([1]; component (b) alone, 500 ppm) was 99. The “Test 1 Measured” value ([2]; component (b) alone, 20 ppm) was 5, the “Test 1 Measured” value ([2]; component (b) alone, 100 ppm) was 92.5 and the “Test 1 Measured” value ([2]; component (b) alone, 500 ppm) was 96.5.

Propineb was tested, and the “Test 2 Measured” value ([1]; component (b) alone, 2 ppm) was 17.5, the “Test 2 Measured preventive value” ([1]; component (b) alone, 2 ppm) was 7.5 and the “Test 2 Measured” value ([1]; component (b) alone, 10 ppm) was 95. The “Test 2 Measured preventive value” ([1]; component (b) alone, 10 ppm) was 94.3, the “Test 2 Measured” value ([1]; component (b) alone, 50 ppm) was 100 and the “Test 2 Measured preventive value” ([1]; component (b) alone, 50 ppm) was 100. The “Test 1 Measured” value ([2]; component (b) alone, 2 ppm) was 0.0, the “Test 1 Measured preventive value” ([2]; component (b) alone, 2 ppm) was 0.0 and the “Test 1 Measured” value ([2]; component (b) alone, 10 ppm) was 36.1. For the same compound, the “Test 1 Measured preventive value” ([2]; component (b) alone, 10 ppm) was 48.3, the “Test 1 Measured” value ([2]; component (b) alone, 50 ppm) was 99.0 and the “Test 1 Measured preventive value” ([2]; component (b) alone, 50 ppm) was 98.3.
